In publication PMC9325269, “New Polymethoxyflavones from Hottonia palustris Evoke DNA Biosynthesis-Inhibitory Activity in An Oral Squamous Carcinoma (SCC-25) Cell Line” (Molecules, 2022):
Where two headings read alike, the source gives them in different places.

Assays:
[1] = test system: human tongue squamous carcinoma cells SCC-25; experiment: MTT cell viability assay, SCC-25 cells; type: cell-based; conditions: read-out: IC50 of viability, SCC-25
Description: (§1) The cell viability and proliferation assays were performed on the human tongue squamous cell line (SCC-25). The cells were obtained from ATCC (CRL-1628, American Type Culture Collection, Manassas, VA, USA) and cultured in a 1:1 mixture of DMEM (Dulbecco’s minimal essential medium) and Ham’s F12 medium (Thermo Fisher Scientific, Waltham, MA, USA, 31330038) supplemented with 400 ng/mL hydrocortisone (Sigma-Aldrich, Burlington, MA, USA, H0135), 10% FBS (fetal bovine serum, Thermo Fisher Scientific, Waltham, MA, USA, 10270106), and penicillin–streptomycin solution (Thermo Fisher Scientific, Waltham, MA, USA, 15140122). Furthermore, for the cytotoxicity assay, human skin fibroblasts (CCD25Sk) cultured in DMEM (Thermo Fisher Scientific, Waltham, MA, USA, 41966029) supplemented with 10% FBS and penicillin-streptomycin solution were used. The cells were incubated at 37 °C in the air with 5% CO2. […] MTT (M5655), SDS (L3771), and cisplatin (cPT), which was used as a positive control (P4394), were purchased from Sigma-Aldrich (Burlington, MA, USA).
(§2) The cell viability assay leans on the transformation of yellow tetrazolinum bromide MTT solution to the purple derivative of formazan via succinate dehydrogenase, an enzyme present in viable cells. Cells were cultured (1 × 10^4 per well) on a 96-well plate to receive 70% of their confluency. After 24 h and 48 h of incubation with the studied samples (prepared as DMSO solutions directly before the assay), the cells were washed with PBS (phosphate-buffered saline). Subsequently, the MTT solution was added, and the plates were incubated at 37 °C for 2 h. Then, formazan crystals were dissolved in 200 μL of DMSO with Sorensen’s glycine buffer and were shacked for 10 min.

normal fibroblasts = experiment: MTT cell viability assay, normal fibroblasts; type: cell-based, human; conditions: read-out: IC50 of viability, Fibroblasts
Description: as §1, §2

[2] = test system: SCC-25 squamous carcinoma cells; experiment: Morphological profile of SCC-25 cells (microphotographs); type: cell-based, human; conditions: 24 h and 48 h; extracts 100 µg/mL, compounds 100 µM
[3] = test system: DNA biosynthesis in SCC-25 cells; experiment: [3H]-thymidine incorporation (DNA biosynthesis / proliferation) assay; type: cell-based; conditions: Homo sapiens; 48 h treatment of SCC-25 cells (as stated in abstract); read-out: DNA biosynthesis-inhibitory activity IC50
Description: Considering this fact, an evaluation determining whether the cytotoxicity of the samples was the result of their influence on the biosynthesis of cell DNA was carried out by assessing the capability of intracellular thymidine incorporation.
The proliferation of the tested cells was estimated as [^3H]-thymidine incorporation into the DNA of the cells treated with the studied samples [40]. Firstly, cells (1 × 10^4 per well) were placed in 24-well plates and were allowed to adhere for 24 h. […] After incubation for 24 h and 48 h at 37 °C, the cells were rinsed with PBS and solubilized with 1 mL of 0.1 M NaOH (sodium hydroxide) containing 1% SDS (sodium dodecyl sulfate). Then, radioactivity was recorded in a Liquid Scintillation Analyzer (Perkin-Elmer, Waltham, MA, USA) after correction to 9 mL with scintillation liquid.

melanoma cells = conditions: cited from earlier work
[4] = Homo sapiens, SCC-25, 24 h, MTT, compounds 6.25–200 µM
[5] = Homo sapiens, SCC-25, 48 h, MTT, compounds 6.25–200 µM
[6] = 24 h, MTT, compounds 6.25–200 µM
[7] = 48 h, MTT, compounds 6.25–200 µM

For `O=c1cc(-c2ccccc2)oc2cccc(O)c12` [Compound 2, 5-hydroxy-2-phenyl-4H-chromen-4-one], the IC50 [1, 4] was greater than 200 µM and the IC50 [1, 5] was greater than 200 µM.

`N.N.[Cl][Pt][Cl]` [cPT, cisplatin, reference compound] gave an IC50 [1, 6] of 26.1 ± 1.03 µM, an IC50 [1, 7] of 7.58 ± 0.37 µM and an IC50 (normal fibroblasts; [6]) greater than 200 µM. For the same molecule, the IC50 (normal fibroblasts; [7]) was 40.5 ± 2.01 µM and the “morphological profile, cell adhesion and number of cells versus untreated” value [2] was “decreased the number of cells”.

Molecule `O=C(CC(=O)c1ccccc1)c1ccccc1` [Compound 1, 1,3-diphenylpropane-1,3-dione] has an IC50 ([1]; Homo sapiens, SCC-25, 24 h) of 40 ± 1.89 µM, an IC50 ([1]; Homo sapiens, SCC-25, 48 h) of 29.1 ± 1.45 µM and an IC50 (normal fibroblasts; Homo sapiens, Fibroblast, 24 h) greater than 200 µM. For the same molecule, the IC50 (normal fibroblasts; Homo sapiens, Fibroblast, 48 h) was greater than 200 µM, the IC50 [3] was 29.1 ± 1.45 µM and the “morphological profile, cell adhesion and number of cells versus untreated” value [2] was “decreased the number of cells”. The cell cycle effect (melanoma cells) was “cell-cycle deregulation”.

Work on `COc1ccc(O)c(-c2cc(=O)c3c(O)cccc3o2)c1OC` [Compound 7, 5-hydroxy-2-(6-hydroxy-2,3-dimethoxyphenyl)-4H-chromen-4-one] yielded an IC50 ([1]; Homo sapiens, SCC-25, 24 h) of 78.2 ± 3.25 µM, an IC50 ([1]; Homo sapiens, SCC-25, 48 h) of 40.6 ± 1.65 µM and an IC50 (normal fibroblasts; Homo sapiens, Fibroblast, 24 h) greater than 200 µM. For the same molecule, the IC50 (normal fibroblasts; Homo sapiens, Fibroblast, 48 h) was greater than 200 µM, the IC50 [3] was 40.6 ± 1.65 µM and the “morphological profile, cell adhesion and number of cells versus untreated” value [2] was “decreased the number of cells”.

Molecule `COc1ccccc1-c1cc(=O)c2c(O)cccc2o1` [Compound 3, 5-hydroxy-2-(2-methoxyphenyl)-4H-chromen-4-one] has an IC50 ([1]; Homo sapiens, SCC-25, 24 h) greater than 200 µM and an IC50 ([1]; Homo sapiens, SCC-25, 48 h) greater than 200 µM.

In the case of `COc1ccc(OC)c(-c2cc(=O)c3c(O)cccc3o2)c1OC` [Compound 5, 5-hydroxy-2-(2,3,6-trimethoxyphenyl)-4H-chromen-4-one], the IC50 ([1]; Homo sapiens, SCC-25, 24 h) is reported as greater than 200 µM and the IC50 ([1]; Homo sapiens, SCC-25, 48 h) is reported as greater than 200 µM.

`COc1cccc(O)c1-c1cc(=O)c2c(O)cccc2o1` [Compound 6, 5-hydroxy-2-(2-hydroxy-6-methoxyphenyl)-4H-chromen-4-one] showed an IC50 [1, 4] greater than 200 µM and an IC50 [1, 5] greater than 200 µM.

In the case of `COc1cccc(OC)c1-c1cc(=O)c2c(O)cccc2o1` [Compound 4, 5-hydroxy-2-(2,6-dimethoxyphenyl)-4H-chromen-4-one], the IC50 ([1]; Homo sapiens, SCC-25, 24 h) is reported as greater than 200 µM and the IC50 ([1]; Homo sapiens, SCC-25, 48 h) is reported as greater than 200 µM.
